Measured values reported in patent US9980943B2, “Methods of treating muscular dystrophy” (BOARD OF REGENTS OF THE NEVADA SYSTEM OF HIGHER EDUCATION, …, priority 2013, dated 2018).

Legend:
Type in all cases: cell-based, mouse
[1] = test system: α7 integrin (LacZ reporter in α7+/LacZ myotubes); assay: Myotube α7 integrin FDG assay (Burkin assay in myotubes, 96-well); details: myotubes
[2] = test system: α7 integrin (LacZ reporter in α7βgal+/− myoblasts); assay: Myoblast α7+/LacZ integrin FDG assay (Burkin assay in myoblasts, 96-well); details: α7+/LacZ myoblasts, 96-well
[3] = test system: β-galactosidase in CMV-LacZ C2C12 myotubes; assay: CMV-LacZ secondary screen in C2C12 myotubes (β-Gal stabilizing assay); details: for CMV-LACZ in Myotubes (β-galactosidase activity relative to DMSO): CMV-LacZ C2C12 myotubes, 96-well format; for CMV-LACZ in Myotubes, signal relative to DMSO: C2C12 CMV-LacZ myotubes, fold relative to DMSO
How it was run: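 Stable CMV-LacZ C2C12 clone; six-point curve 0.5–40 μM; duplicates.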

Structure (SMILES)	Burkin Assay in Myotubes (signal relative to DMSO) ([1]; 0.5 uM)	Burkin Assay in Myotubes (signal relative to DMSO) ([1]; 1 uM)	Burkin Assay in Myotubes (signal relative to DMSO) ([1]; 5 uM)	Burkin Assay in Myotubes (signal relative to DMSO) ([1]; 10 uM)	Burkin Assay in Myotubes (signal relative to DMSO) ([1]; 20 uM)	Burkin Assay in Myotubes (signal relative to DMSO) ([1]; 40 uM)	Burkin Assay in Myoblasts, value relative to DMSO ([2]; 0.5 uM)	Burkin Assay in Myoblasts, value relative to DMSO ([2]; 1 uM)	Burkin Assay in Myoblasts, value relative to DMSO ([2]; 5 uM)	Burkin Assay in Myoblasts, value relative to DMSO ([2]; 10 uM)	Burkin Assay in Myoblasts, value relative to DMSO ([2]; 20 uM)	Burkin Assay in Myoblasts, value relative to DMSO ([2]; 40 uM)	CMV-LACZ in Myotubes (β-galactosidase activity relative to DMSO) ([3]; 5 uM)	CMV-LACZ in Myotubes (β-galactosidase activity relative to DMSO) ([3]; 10 uM)	CMV-LACZ in Myotubes (β-galactosidase activity relative to DMSO) ([3]; 20 uM)	CMV-LACZ in Myotubes (β-galactosidase activity relative to DMSO) ([3]; 40 uM)	CMV-LACZ in Myotubes, signal relative to DMSO ([3]; 5 uM)	CMV-LACZ in Myotubes, signal relative to DMSO ([3]; 10 uM)	CMV-LACZ in Myotubes, signal relative to DMSO ([3]; 20 uM)	CMV-LACZ in Myotubes, signal relative to DMSO ([3]; 40 uM)	other results
CCCCS(=O)(=O)N1CCCC(C(=O)NCCc2ccccc2)C1 (stereo not shown) [MLS001163121-01]	1.052	0.9895	0.9395	1.173	1.07	1.09	1.049	1.012	0.9488	0.9907	0.8074	0.9157	0.8506	0.8294	0.8781	0.9211	–	–	–	–	–
COc1ccccc1-c1coc2c(CN3C(C)CCCC3C)c(O)ccc2c1=O (stereo not shown) [MLS001163140-01]	0.9236	1.035	0.9282	1.1264	0.9651	1.011	1.019	1.217	0.9966	1.098	0.935	0.9829	–	–	–	–	1.029	1.061	0.9159	1.19	–
COc1ccc(C(=O)O/N=C(\N)c2cccc(C)c2)cc1OC [MLS001165323-01]	0.9468	0.9627	1.166	1.153	1.054	1.088	0.9704	0.9491	0.8821	0.924	0.8743	0.4779	1.072	0.9	1.315	1.488	–	–	–	–	–
O=[N+]([O-])c1ccc(N2CCN(c3ccccc3F)CC2)nc1 [MLS001165749-01]	–	–	–	–	–	–	–	–	–	–	–	–	–	–	–	–	0.8271	0.9284	1.024	1.038	Burkin Assay in Myotubes, α7 integrin LacZ reporter signal relative to DMSO ([1]; 0.5 uM): 0.9532; Burkin Assay in Myotubes, α7 integrin LacZ reporter signal relative to DMSO ([1]; 1 uM): 1.078; Burkin Assay in Myotubes, α7 integrin LacZ reporter signal relative to DMSO ([1]; 5 uM): 1.1624; Burkin Assay in Myotubes, α7 integrin LacZ reporter signal relative to DMSO ([1]; 10 uM): 1.122; Burkin Assay in Myotubes, α7 integrin LacZ reporter signal relative to DMSO ([1]; 20 uM): 0.7808; Burkin Assay in Myotubes, α7 integrin LacZ reporter signal relative to DMSO ([1]; 40 uM): 0.7342; Burkin Assay in Myoblasts, signal relative to DMSO ([2]; 0.5 uM): 1.048; Burkin Assay in Myoblasts, signal relative to DMSO ([2]; 1 uM): 1.057; Burkin Assay in Myoblasts, signal relative to DMSO ([2]; 5 uM): 1.034; Burkin Assay in Myoblasts, signal relative to DMSO ([2]; 10 uM): 0.9342; Burkin Assay in Myoblasts, signal relative to DMSO ([2]; 20 uM): 0.9628; Burkin Assay in Myoblasts, signal relative to DMSO ([2]; 40 uM): 0.7711
Cc1ccc(-c2onc3ccc(C(=O)/C=C/N(C)C)cc23)cc1 [MLS001166156-01]	1.001	0.8521	1.07	0.7592	0.8218	0.4461	0.8005	0.9085	0.7543	0.7601	0.7571	0.3481	0.8707	0.9198	0.7796	0.5227	–	–	–	–	–
O=C(O)c1cc(-c2ccccc2Cl)n(-c2cccc(Cl)c2)n1 [MLS001166325-01]	1.057	1.049	1.112	1.065	0.9593	1.0054	1.017	0.9268	0.9487	0.9453	0.9772	1.032	–	–	–	–	0.7726	0.9795	0.8969	0.8785	–
COc1ccc(Cl)cc1NC(=O)CC(=O)Nc1cc(Cl)ccc1OC [MLS001166704-01]	–	–	–	–	–	–	–	–	–	–	–	–	–	–	–	–	1.088	1.1553	1.4595	1.0685	Burkin Assay in Myotubes, α7 integrin LacZ reporter signal relative to DMSO ([1]; 0.5 uM): 1.166; Burkin Assay in Myotubes, α7 integrin LacZ reporter signal relative to DMSO ([1]; 1 uM): 1.268; Burkin Assay in Myotubes, α7 integrin LacZ reporter signal relative to DMSO ([1]; 5 uM): 0.8936; Burkin Assay in Myotubes, α7 integrin LacZ reporter signal relative to DMSO ([1]; 10 uM): 1.065; Burkin Assay in Myotubes, α7 integrin LacZ reporter signal relative to DMSO ([1]; 20 uM): 0.7918; Burkin Assay in Myotubes, α7 integrin LacZ reporter signal relative to DMSO ([1]; 40 uM): 0.81; Burkin Assay in Myoblasts, signal relative to DMSO ([2]; 0.5 uM): 1.109; Burkin Assay in Myoblasts, signal relative to DMSO ([2]; 1 uM): 1.165; Burkin Assay in Myoblasts, signal relative to DMSO ([2]; 5 uM): 0.8499; Burkin Assay in Myoblasts, signal relative to DMSO ([2]; 10 uM): 0.7652; Burkin Assay in Myoblasts, signal relative to DMSO ([2]; 20 uM): 0.5747; Burkin Assay in Myoblasts, signal relative to DMSO ([2]; 40 uM): 0.4394
COC(=O)c1ccccc1NC(=O)c1cc[n+]([O-])cc1 [MLS001167169-01]	–	–	–	–	–	–	–	–	–	–	–	–	–	–	–	–	0.9323	1.009	1.085	1.103	Burkin Assay in Myotubes, α7 integrin LacZ reporter signal relative to DMSO ([1]; 0.5 uM): 0.8925; Burkin Assay in Myotubes, α7 integrin LacZ reporter signal relative to DMSO ([1]; 1 uM): 0.9375; Burkin Assay in Myotubes, α7 integrin LacZ reporter signal relative to DMSO ([1]; 5 uM): 1.041; Burkin Assay in Myotubes, α7 integrin LacZ reporter signal relative to DMSO ([1]; 10 uM): 0.9696; Burkin Assay in Myotubes, α7 integrin LacZ reporter signal relative to DMSO ([1]; 20 uM): 1.3902; Burkin Assay in Myotubes, α7 integrin LacZ reporter signal relative to DMSO ([1]; 40 uM): 0.6262; Burkin Assay in Myoblasts, signal relative to DMSO ([2]; 0.5 uM): 1.032; Burkin Assay in Myoblasts, signal relative to DMSO ([2]; 1 uM): 0.8858; Burkin Assay in Myoblasts, signal relative to DMSO ([2]; 5 uM): 0.9547; Burkin Assay in Myoblasts, signal relative to DMSO ([2]; 10 uM): 0.9378; Burkin Assay in Myoblasts, signal relative to DMSO ([2]; 20 uM): 0.8133; Burkin Assay in Myoblasts, signal relative to DMSO ([2]; 40 uM): 0.9062
CCOc1ccc2ccccc2c1C1NC(=O)N(C)C(C)=C1C(=O)OCCOC (stereo not shown) [MLS001167424-01]	1.046	0.9596	1.365	0.7848	1.0277	0.9779	0.9904	1.428	0.8924	0.907	0.7995	0.8164	–	–	–	–	0.7491	0.9718	1.157	0.9925	–
O=Cc1ccc(C(=O)OCC(=O)N2CCCC2)cc1 [MLS001172577-01]	1.122	1.0349	1.131	1.101	1.14	0.7324	0.996	0.9654	1.142	1.0758	1.0212	0.9431	–	–	–	–	0.8944	0.862	1.029	0.9627	–
